# Reference: patent US9828379B2 (priority 2013, dated 2017)
# Key:
# ABHD6 [1] = target: T1, ABHD6 (Mus musculus, UniProt Q8R2Y0); experiment: In vitro competitive activity-based protein profiling (Table 2, % inhibition at 1 μM); type: biochemical; settings: read-out: % Inhibition at 1 μM ABHD6
# T1 sequence (Q8R2Y0 1-336): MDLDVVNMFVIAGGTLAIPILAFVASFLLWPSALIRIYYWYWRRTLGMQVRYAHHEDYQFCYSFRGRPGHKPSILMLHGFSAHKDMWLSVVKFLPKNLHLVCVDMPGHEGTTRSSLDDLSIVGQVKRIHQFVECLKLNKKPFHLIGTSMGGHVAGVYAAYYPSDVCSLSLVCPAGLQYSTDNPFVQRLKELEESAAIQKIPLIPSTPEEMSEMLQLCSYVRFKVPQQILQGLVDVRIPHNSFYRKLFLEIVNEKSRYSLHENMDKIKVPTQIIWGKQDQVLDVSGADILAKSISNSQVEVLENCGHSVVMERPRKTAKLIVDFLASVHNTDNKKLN
# FAAH [2] = target: T2, FAAH (Mus musculus, UniProt O08914); experiment: as above; type: biochemical; settings: read-out: % Inhibition at 1 μM FAAH
# T2 sequence (O08914 1-579): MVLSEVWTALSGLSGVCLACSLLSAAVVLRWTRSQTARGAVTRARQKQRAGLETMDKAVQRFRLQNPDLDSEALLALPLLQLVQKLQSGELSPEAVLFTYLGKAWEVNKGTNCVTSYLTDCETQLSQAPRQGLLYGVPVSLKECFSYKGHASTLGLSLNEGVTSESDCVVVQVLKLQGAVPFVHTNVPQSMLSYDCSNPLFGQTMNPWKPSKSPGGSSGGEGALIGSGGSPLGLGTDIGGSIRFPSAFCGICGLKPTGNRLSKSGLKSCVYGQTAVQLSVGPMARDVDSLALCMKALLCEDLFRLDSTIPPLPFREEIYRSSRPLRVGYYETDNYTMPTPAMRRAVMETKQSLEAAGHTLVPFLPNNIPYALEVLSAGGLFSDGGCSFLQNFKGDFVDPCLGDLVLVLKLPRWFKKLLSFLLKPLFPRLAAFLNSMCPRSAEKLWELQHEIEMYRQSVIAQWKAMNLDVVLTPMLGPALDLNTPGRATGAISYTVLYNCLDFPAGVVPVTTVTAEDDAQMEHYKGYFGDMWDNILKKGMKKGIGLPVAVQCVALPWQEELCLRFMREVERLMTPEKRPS
# ABHD6 [3] = target: T1, ABHD6; experiment: biochemical; settings: in vitro competitive ABPP
# MAGL [4] = target: T3, MAGL (Mus musculus, UniProt O35678); experiment: In vitro competitive activity-based protein profiling (Table 2, % inhibition at 1 μM); type: biochemical; settings: read-out: % Inhibition at 1 μM MAGL
# T3 sequence (O35678 1-303): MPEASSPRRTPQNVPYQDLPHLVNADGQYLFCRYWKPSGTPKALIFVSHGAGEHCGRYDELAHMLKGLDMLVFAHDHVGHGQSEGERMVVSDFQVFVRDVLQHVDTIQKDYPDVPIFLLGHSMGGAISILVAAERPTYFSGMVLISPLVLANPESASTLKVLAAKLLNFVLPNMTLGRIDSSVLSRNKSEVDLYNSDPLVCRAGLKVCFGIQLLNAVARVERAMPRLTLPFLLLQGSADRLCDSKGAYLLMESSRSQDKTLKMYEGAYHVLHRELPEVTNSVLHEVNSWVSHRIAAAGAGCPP
# Method: After 30 min, FP—Rh (1.0 μL, 50 μM in DMSO) was added and the mixture was incubated for another 30 min at 37° C. Reactions were quenched with SDS loading buffer (50 μL-4×) and run on SDS-PAGE.
# Cell lysates were diluted with mock proteomes for use in competitive ABPP experiments.
# MAGL [5] = target: T3, MAGL; experiment: biochemical; settings: mouse; in vitro competitive ABPP; read-out: Mouse (IC50 value, nM) MAGL
# FAAH [6] = target: T2, FAAH; experiment: biochemical; settings: in vitro competitive ABPP
Structure (SMILES),inhibition at 1 µM (ABHD6 [1]) [%],inhibition at 1 µM (FAAH [2]) [%],IC50 (ABHD6 [3]) [nM],inhibition at 1 µM (MAGL [4]) [%],IC50 (MAGL [5]) [nM],IC50 (FAAH [6]) [nM]
"Cc1cccc(CN2CC3CN(C(=O)OC(C(F)(F)F)C(F)(F)F)CC3C2)c1N1CCCCC1 (stereo not drawn) [Example 30, 1,1,1,3,3,3-Hexafluoropropan-2-yl 5-[[3-methyl-2-(piperidin-1-yl)phenyl]methyl]-octahydropyrrolo[3,4-c]pyrrole-2-carboxylate]",< 25,< 25,1000 to 10000,> 75,100 to 1000,> 10000
"O=C(OC(C(F)(F)F)C(F)(F)F)N1CC2CN(Cc3cc(CN4CCCCC4)ccc3OC(F)(F)F)CC2C1 (stereo not drawn) [Example 189, 1,1,1,3,3,3-hexafluoropropan-2-yl 5-(5-(piperidin-1-ylmethyl)-2-(trifluoromethoxy)benzyl)hexahydropyrrolo[3,4-c]pyrrole-2(1H)-carboxylate]",< 25,< 25,1000 to 10000,> 75,100 to 1000,1000 to 10000
"O=C(OC(C(F)(F)F)C(F)(F)F)N1CC2CN(Cc3c(N4CC5COCC5C4)cccc3C(F)(F)F)CC2C1 (stereo not drawn) [Example 209, 1,1,1,3,3,3-hexafluoropropan-2-yl 5-(2-(tetrahydro-1H-furo[3,4-c]pyrrol-5(3H)-yl)-6-(trifluoromethyl)benzyl)hexahydropyrrolo[3,4-c]pyrrole-2(1H)-carboxylate]",25 to 75,< 25,1000 to 10000,> 75,100 to 1000,> 10000
"CC(=O)N1CCN(c2cc(F)ccc2CN2CC3CN(C(=O)OC(C(F)(F)F)C(F)(F)F)CC3C2)CC1 (stereo not drawn) [Example 17, 1,1,1,3,3,3-Hexafluoropropan-2-yl 5-[[2-(4-acetylpiperazin-1-yl)-4-fluorophenyl]methyl]-octahydropyrrolo[3,4-c]pyrrole-2-carboxylate]",< 25,25 to 75,1000 to 10000,> 75,100 to 1000,1000 to 10000
"CC1COCCN1c1ccc(CN2CC3CN(C(=O)ON4C(=O)CCC4=O)CC3C2)c(Cl)c1 (stereo not drawn) [Example 102, 2,5-Dioxopyrrolidin-1-yl 5-[[2-chloro-4-(3-methylmorpholin-4-yl)phenyl]methyl]-octahydropyrrolo[3,4-c]pyrrole-2-carboxylate]",< 25,25 to 75,1000 to 10000,25 to 75,100 to 1000,1000 to 10000
"CN1CCN(c2c(Cl)cccc2CN2CC3CN(C(=O)OC(C(F)(F)F)C(F)(F)F)CC3C2)CC1 (stereo not drawn) [Example 171, 1,1,1,3,3,3-hexafluoropropan-2-yl 5-[[3-chloro-2-(4-methylpiperazin-1-yl)phenyl]methyl]-octahydropyrrolo[3,4-c]pyrrole-2-carboxylate]",< 25,< 25,1000 to 10000,> 75,100 to 1000,> 10000
"O=C(OC(C(F)(F)F)C(F)(F)F)N1CC2CN(Cc3cccc(Cl)c3N3CCOCC3)CC2C1 (stereo not drawn) [Example 44, 1,1,1,3,3,3-Hexafluoropropan-2-yl 5-[[3-chloro-2-(morpholin-4-yl)phenyl]methyl]-octahydropyrrolo[3,4-c]pyrrole-2-carboxylate]",< 25,< 25,1000 to 10000,> 75,< 100,1000 to 10000
"O=C(OC(C(F)(F)F)C(F)(F)F)N1CC2CN(Cc3ccc(N4CCOCC4)cc3Cl)CC2C1 (stereo not drawn) [Example 2, 1,1,1,3,3,3-Hexafluoropropan-2-yl 5-(2-chloro-4-morpholinobenzyl)hexahydropyrrolo[3,4-c]pyrrole-2(1H)-carboxylate]",< 25,25 to 75,1000 to 10000,> 75,< 100,100 to 1000
"O=C(OC(C(F)(F)F)C(F)(F)F)N1CC2CN(Cc3cccc(N4CCC5(CCOC5)C4)c3Cl)CC2C1 (stereo not drawn) [Example 48, 1,1,1,3,3,3-Hexafluoropropan-2-yl 5-[(2-chloro-3-[2-oxa-7-azaspiro[4.4]nonan-7-yl]phenyl)methyl]-octahydropyrrolo[3,4-c]pyrrole-2-carboxylate]",< 25,25 to 75,1000 to 10000,> 75,< 100,1000 to 10000
"CC(=O)N1CCC(c2nn(C(C)C)cc2CN2CC3CN(C(=O)OC(C(F)(F)F)C(F)(F)F)CC3C2)CC1 (stereo not drawn) [Example 55, 1,1,1,3,3,3-Hexafluoropropan-2-yl 5-[[3-(1-acetylpiperidin-4-yl)-1-(propan-2-yl)-1H-pyrazol-4-yl]methyl]-octahydropyrrolo[3,4-c]pyrrole-2-carboxylate]",< 25,< 25,1000 to 10000,> 75,100 to 1000,> 10000
"O=C(ON1C(=O)CCC1=O)N1CC2CN(Cc3ccc(Cl)cc3N3CCOC4CCCC43)CC2C1 (stereo not drawn) [Example 82, 2,5-Dioxopyrrolidin-1-yl 5-(4-chloro-2-(hexahydrocyclopenta[b][1,4]oxazin-4(4aH)-yl)benzyl)hexahydropyrrolo[3,4-c]pyrrole-2(1H)-carboxylate]",25 to 75,< 25,1000 to 10000,25 to 75,100 to 1000,1000 to 10000
"O=C(OC(C(F)(F)F)C(F)(F)F)N1CC2CN(Cc3ccc(Cl)cc3N3CCn4ncnc4C3)CC2C1 (stereo not drawn) [Example 34, 1,1,1,3,3,3-Hexafluoropropan-2-yl 5-(4-chloro-2-(5,6-dihydro-[1,2,4]triazolo[1,5-a]pyrazin-7(8H)-yl)benzyl)-hexahydropyrrolo[3,4-c]pyrrole-2(1H)-carboxylate]",25 to 75,25 to 75,100 to 1000,> 75,< 100,1000 to 10000
"CC(C)n1cc(CN2CC3CN(C(=O)OC(C(F)(F)F)C(F)(F)F)CC3C2)c(-c2ccccc2)n1 (stereo not drawn) [Example 53, 1,1,1,3,3,3-Hexafluoropropan-2-yl 5-[[3-phenyl-1-(propan-2-yl)-1H-pyrazol-4-yl]methyl]-octahydropyrrolo[3,4-c]pyrrole-2-carboxylate]",25 to 75,< 25,1000 to 10000,> 75,< 100,1000 to 10000
"Cc1cccc(-c2cc(CN3CC4CN(C(=O)OC(C(F)(F)F)C(F)(F)F)CC4C3)n(C)n2)c1 (stereo not drawn) [Example 196, 1,1,1,3,3,3-hexafluoropropan-2-yl 5-((1-methyl-3-(m-tolyl)-1H-pyrazol-5-yl)methyl)hexahydropyrrolo[3,4-c]pyrrole-2(1H)-carboxylate]",< 25,< 25,1000 to 10000,> 75,< 100,1000 to 10000
"O=C(OC(C(F)(F)F)C(F)(F)F)N1CC2CN(Cc3ccc(C(F)(F)F)cc3N3CC4COCC4C3)CC2C1 (stereo not drawn) [Example 210, 1,1,1,3,3,3-hexafluoropropan-2-yl 5-(2-(tetrahydro-1H-furo[3,4-c]pyrrol-5(3H)-yl)-4-(trifluoromethyl)benzyl)hexahydropyrrolo[3,4-c]pyrrole-2(1H)-carboxylate]",< 25,< 25,1000 to 10000,> 75,< 100,1000 to 10000
